For this experiment, the target named is T1, HEK-Blue-hTLR7 cells (Homo sapiens, UniProt Q9NYK1).
T1 construct: expressed in transfected cells; host or cells: HEK-Blue-hTLR7 cells (HEK293-derived reporter line)
T1 sequence (Q9NYK1 27-1049): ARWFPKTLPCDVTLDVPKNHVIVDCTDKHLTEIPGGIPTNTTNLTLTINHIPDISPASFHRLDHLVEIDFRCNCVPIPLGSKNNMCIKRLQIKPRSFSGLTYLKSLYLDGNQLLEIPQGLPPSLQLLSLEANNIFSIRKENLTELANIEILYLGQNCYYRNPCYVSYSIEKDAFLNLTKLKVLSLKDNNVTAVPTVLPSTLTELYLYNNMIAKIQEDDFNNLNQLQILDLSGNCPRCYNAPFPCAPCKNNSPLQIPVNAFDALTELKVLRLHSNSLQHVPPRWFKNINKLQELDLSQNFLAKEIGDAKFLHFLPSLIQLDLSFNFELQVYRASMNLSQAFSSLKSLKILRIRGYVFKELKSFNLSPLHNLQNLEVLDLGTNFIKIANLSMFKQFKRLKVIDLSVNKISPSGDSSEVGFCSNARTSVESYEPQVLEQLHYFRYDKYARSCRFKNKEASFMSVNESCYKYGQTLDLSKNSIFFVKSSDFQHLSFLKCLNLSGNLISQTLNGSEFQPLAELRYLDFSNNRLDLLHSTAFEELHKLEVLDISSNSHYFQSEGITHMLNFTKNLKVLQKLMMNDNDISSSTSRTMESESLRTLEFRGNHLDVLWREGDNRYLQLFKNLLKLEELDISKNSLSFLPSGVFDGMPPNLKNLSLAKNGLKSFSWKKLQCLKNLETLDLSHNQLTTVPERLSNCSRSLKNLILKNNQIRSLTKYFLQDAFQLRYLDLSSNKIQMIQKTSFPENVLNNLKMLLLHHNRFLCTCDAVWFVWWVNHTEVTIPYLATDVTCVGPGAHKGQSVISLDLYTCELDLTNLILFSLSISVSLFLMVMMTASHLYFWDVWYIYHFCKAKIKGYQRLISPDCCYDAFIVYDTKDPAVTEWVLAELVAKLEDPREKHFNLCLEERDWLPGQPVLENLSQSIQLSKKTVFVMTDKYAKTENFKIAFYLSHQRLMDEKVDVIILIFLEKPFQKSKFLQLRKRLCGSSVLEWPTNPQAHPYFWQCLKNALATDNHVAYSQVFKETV
The experiment is described as follows: HEK-Blue-hTLR7 cell inhibition assay. Format: cell-based. As to conditions: R848 0.8 µM, 16 h, OD 620 nm, read-out: TLR7 IC50. In outline: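 Cells were pre-incubated 4 h, then co-treated 16 h at 37 °C with compound (10 doses, 0.5–10000 nM final) plus R848 (0.8 µM for TLR7, 3 µM for TLR8) or ODN2006 (1 µM, TLR9). Reporter OD620 gave inhibition relative to DMSO blank and agonist-only controls; IC50 came from curve fitting.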

Structures are written as SMILES.

As a reminder, the IC50 is the concentration that inhibits the measured activity by half. On to `CN1[C@@H]2CC[C@H]1C[C@H](c1nnc([C@]34CN(c5ccc(C(F)(F)F)c6ncccc56)C[C@@]3(C(F)(F)F)C4)o1)C2` [Compound 79, 2-((1R,3S,5S)-8-methyl-8-azabicyclo[3.2.1]octan-3-yl)-5-((1S,5R)-5-(trifluoromethyl)-3-(8-(trifluoromethyl)quinolin-5-yl)-3-azabicyclo[3.1.0]hexan-1-yl)-1,3,4-oxadiazole], for which the IC50 is below 0.1 µM.

As for `N#Cc1ccc(N2C[C@]3(c4nnc(C5CCNCC5)o4)C[C@]3(C(F)(F)F)C2)c2c(F)cnn12` [Compound 80, 3-fluoro-4-((1S,5R)-1-(5-(piperidin-4-yl)-1,3,4-oxadiazol-2-yl)-5-(trifluoromethyl)-3-azabicyclo[3.1.0]hexan-3-yl)pyrazolo[1,5-a]pyridine-7-carbonitrile], the IC50 is below 0.1 µM.

For the molecule `NC12CCC(c3nnc([C@]45CN(c6ccc(C(F)(F)F)c7ncccc67)C[C@@]4(C(F)(F)F)C5)o3)(CC1)CC2` [Compound 81, 4-(5-((1S,5R)-5-(trifluoromethyl)-3-(8-(trifluoromethyl)quinolin-5-yl)-3-azabicyclo[3.1.0]hexan-1-yl)-1,3,4-oxadiazol-2-yl)bicyclo[2.2.2]octan-1-amine], the IC50 was below 0.1 µM.

In the case of `CN1CCC(c2nnc([C@]34CN(c5ccc(C#N)n6ncc(Br)c56)C[C@@]3(C(F)(F)F)C4)o2)CC1` [Compound 83, 3-bromo-4-((1S,5R)-1-(5-(1-methylpiperidin-4-yl)-1,3,4-oxadiazol-2-yl)-5-(trifluoromethyl)-3-azabicyclo[3.1.0]hexan-3-yl)pyrazolo[1,5-a]pyridine-7-carbonitrile], the IC50 is below 1 µM.

Take `CN1CCC(c2nnc([C@]34CN(c5ccc(C#N)n6ncc(Cl)c56)C[C@@]3(C(F)(F)F)C4)o2)CC1` [Compound 84, 3-chloro-4-((1S,5R)-1-(5-(1-methylpiperidin-4-yl)-1,3,4-oxadiazol-2-yl)-5-(trifluoromethyl)-3-azabicyclo[3.1.0]hexan-3-yl)pyrazolo[1,5-a]pyridine-7-carbonitrile]: the IC50 is below 0.1 µM.

With `CN1CCC(c2nnc([C@]34CN(c5c(Br)cc(C#N)n6ncc(Br)c56)C[C@@]3(C(F)(F)F)C4)o2)CC1` [Compound 85, 3,5-dibromo-4-((1S,5R)-1-(5-(1-methylpiperidin-4-yl)-1,3,4-oxadiazol-2-yl)-5-(trifluoromethyl)-3-azabicyclo[3.1.0]hexan-3-yl)pyrazolo[1,5-a]pyridine-7-carbonitrile], the IC50 was above 1 µM.

`CN1CCC(c2nnc([C@]34CN(c5c(Br)cc(C#N)n6nccc56)C[C@@]3(C(F)(F)F)C4)o2)CC1` [Compound 86, 5-bromo-4-((1S,5R)-1-(5-(1-methylpiperidin-4-yl)-1,3,4-oxadiazol-2-yl)-5-(trifluoromethyl)-3-azabicyclo[3.1.0]hexan-3-yl)pyrazolo[1,5-a]pyridine-7-carbonitrile]: the IC50 is below 1 µM.

For `CN1CCC(c2nnc([C@]34CN(c5ccc(C(F)(F)F)n6nccc56)C[C@@]3(C(F)(F)F)C4)o2)CC1` [Compound 87, 2-(1-methylpiperidin-4-yl)-5-((1S,5R)-5-(trifluoromethyl)-3-(7-(trifluoromethyl)pyrazolo[1,5-a]pyridin-4-yl)-3-azabicyclo[3.1.0]hexan-1-yl)-1,3,4-oxadiazole], the IC50 is below 0.1 µM.

For the molecule `CN1CCC(F)(c2nnc([C@]34CN(c5ccc(C#N)n6nccc56)C[C@@]3(C(F)(F)F)C4)o2)CC1` [Compound 90, 4-((1S,5R)-1-(5-(4-fluoro-1-methylpiperidin-4-yl)-1,3,4-oxadiazol-2-yl)-5-(trifluoromethyl)-3-azabicyclo[3.1.0]hexan-3-yl)pyrazolo[1,5-a]pyridine-7-carbonitrile], the IC50 is below 0.1 µM.

Take `CN1CCC(c2nnc([C@]34CN(c5ccc(C#N)c6ncnn56)C[C@@]3(C(F)(F)F)C4)o2)CC1` [Compound 91, 5-((1S,5R)-1-(5-(1-methylpiperidin-4-yl)-1,3,4-oxadiazol-2-yl)-5-(trifluoromethyl)-3-azabicyclo[3.1.0]hexan-3-yl)-[1,2,4]triazolo[1,5-a]pyridine-8-carbonitrile]: the IC50 is below 0.1 µM.

As to `CN1CCC(Oc2nnc([C@]34CN(c5ccc(C(F)(F)F)c6ncccc56)C[C@@]3(C(F)(F)F)C4)o2)CC1` [Compound 92, 2-((1-methylpiperidin-4-yl)oxy)-5-((1S,5R)-5-(trifluoromethyl)-3-(8-(trifluoromethyl)quinolin-5-yl)-3-azabicyclo[3.1.0]hexan-1-yl)-1,3,4-oxadiazole], the IC50 was below 0.1 µM.

Regarding `CN1CCC(Oc2nnc([C@]34CN(c5ccc(OC(F)(F)F)c6ncccc56)C[C@@]3(C(F)(F)F)C4)o2)CC1` [Compound 93, 2-((1-methylpiperidin-4-yl)oxy)-5-((1S,5R)-5-(trifluoromethyl)-3-(8-(trifluoromethoxy)quinolin-5-yl)-3-azabicyclo[3.1.0]hexan-1-yl)-1,3,4-oxadiazole], the 50% inhibitory concentration (IC50) was below 1 µM.

Consider `CN1CCC(O)(c2nnc([C@]34CN(c5ccc(C(F)(F)F)c6ncccc56)C[C@@]3(C(F)(F)F)C4)o2)CC1` [Compound 94, 1-methyl-4-(5-((1S,5R)-5-(trifluoromethyl)-3-(8-(trifluoromethyl)quinolin-5-yl)-3-azabicyclo[3.1.0]hexan-1-yl)-1,3,4-oxadiazol-2-yl)piperidin-4-ol], for which the half-maximal inhibitory concentration (IC50) was below 0.1 µM.

For `CN1CC(Cc2nnc([C@]34CN(c5ccc(C(F)(F)F)c6ncccc56)C[C@@]3(C(F)(F)F)C4)o2)C1` [Compound 95, 2-((1-methylazetidin-3-yl)methyl)-5-((1S,5R)-5-(trifluoromethyl)-3-(8-(trifluoromethyl)quinolin-5-yl)-3-azabicyclo[3.1.0]hexan-1-yl)-1,3,4-oxadiazole], the IC50 was below 0.1 µM.

With `FC(F)(F)Oc1ccc(N2C[C@]3(c4nnc(C5(F)CCNCC5)o4)C[C@]3(C(F)(F)F)C2)c2cccnc12` [Compound 96, 2-(4-fluoropiperidin-4-yl)-5-((1S,5R)-3-(8-(trifluoromethoxy)quinolin-5-yl)-5-(trifluoromethyl)-3-azabicyclo[3.1.0]hexan-1-yl)-1,3,4-oxadiazole], the IC50 is below 0.1 µM.

For the molecule `CN1CCC(Oc2nnc([C@]34CN(c5ccc(C#N)c6ncnn56)C[C@@]3(C(F)(F)F)C4)o2)CC1` [Compound 97, 5-((1S,5R)-1-(5-((1-methylpiperidin-4-yl)oxy)-1,3,4-oxadiazol-2-yl)-5-(trifluoromethyl)-3-azabicyclo[3.1.0]hexan-3-yl)-[1,2,4]triazolo[1,5-a]pyridine-8-carbonitrile], the IC50 is below 0.1 µM.

The values above are taken from patent publication EP4806891A1 (Kangbaida (Sichuan) Biotechnology Co., Ltd., priority 2023, dated 2025).
